Measurements from patent publication US10675294B2, “Pharmaceutical composition containing 8 OXO-deoxyguanosine or pharmaceutically acceptable salt thereof as active ingredient for treating corneal disease” (GACHON UNIVERSITY OF INDUSTRY-ACADEMIC COOPERATION …, priority 2016, dated 2020).

How the values were obtained:
[1] = tested on: neutrophils, macrophages and T cells; test: Immunohistochemical staining of inflammatory cells in corneal tissue; assay type: in vivo, mouse; conditions: 5 mg/ml or 10 mg/ml in the eye twice a day for a week, compared with control
Description: (§1) Particularly, in order to construct a corneal injury mouse model using ethanol, a filter paper of 6 mm in diameter soaked in 100% ethanol was applied onto the cornea of the right eye of a female BALB/c mouse at 10 weeks of age for 30 seconds, followed by irrigation with PBS (phosphate-buffered saline) for 1 minute. In order to observe the defects of the corneal epithelium surface easily, the lysamine green reagent, which selectively stains the epithelium defect area, was treated on the surface of the damaged corneal epithelium and washed with physiological saline.
Particularly, the ethanol induced corneal injury mouse model constructed in Example 1 was administered with 8-oxo-dG in the eye at the concentration of 5 mg/ml or 10 mg/ml and the control PBS (phosphate-buffered saline), twice a day for a week. The corneal tissues were extracted and fixed in 10% paraformaldehyde, followed by washing with PBS. The tissues were treated with anti-neutrophil elastase, anti CD3 and anti F4/80 antibodies (Abcam, Cambridge, UK), the markers of neutrophils, T lymphocytes and macrophages. After washing with PBS, the secondary antibody (REAL™ EnVision™ detection system, Dako) was applied thereto. […] The immunostained cells in each section were counted by hand by two skilled examiners and the numbers were averaged.

[2] = tested on: ethanol induced corneal injury mouse model; test: Visual and lysamine green staining observation of corneal epithelium surface; assay type: in vivo; conditions: 5 mg/ml and 10 mg/ml in the eye twice a day for a week; compared with control (PBS); FIG. 3
Description: as §1
The 8-oxo-2′-deoxyguanosine compound prepared at the concentrations of 5 mg/ml and 10 mg/ml and the control PBS (phosphate-buffered saline) were applied into the eye of the ethanol induced corneal injury mouse model constructed in Example 1, respectively twice a day for a week, followed by observation with the naked eye and photographs (n=15 in each group).

TNF-α = test: Inflammatory cytokine mRNA expression in corneal tissue by real time PCR; assay type: in vivo, mouse; conditions: 5 mg/ml or 10 mg/ml in the eye twice a day for a week; compared with control; FIG. 7a
[3] = tested on: ethanol induced corneal injury mouse model; test: Histological observation (H&E) of corneal tissue; assay type: in vivo; conditions: 5 mg/ml or 10 mg/ml in the eye twice a day for a week; n=2; FIGS. 5a, 5b
Description: as §1
The ethanol induced corneal injury mouse model constructed in Example 1 was administered with 8-oxo-dG in the eye at the concentration of 5 mg/ml or 10 mg/ml and the control PBS (phosphate-buffered saline), twice a day for a week. The corneal tissues were extracted and fixed in 10% paraformaldehyde, followed by washing with PBS. The tissues were embedded in paraffin and the paraffin block was stained with H&E (haematoxylin and eosin), followed by direct observation under the microscope. The stromal thickness was measured by using Image J software.

IL-1β = test: Inflammatory cytokine mRNA expression in corneal tissue by real time PCR; assay type: in vivo, mouse; conditions: 10 mg/ml in the eye twice a day for a week; compared with control; FIG. 7b
Description: as §1
(§2) Particularly, the ethanol induced corneal injury mouse model constructed in Example 1 was administered with 8-oxo-dG in the eye at the concentration of 5 mg/ml or 10 mg/ml and the control PBS (phosphate-buffered saline), twice a day for a week. The corneal tissue was extracted and homogenized with a sonicator (Ultrasonic Processor, Cole Parmer Instruments, Vernon Hills, Ill., USA). Then, corneal RNA was extracted by using RNeasy Mini kit (Qiagen, Valencia, Calif., USA). CDNA was synthesized with the same amount of RNA of each corneal sample and real-time PCR (ABI 7500 Real Time PCR System, Applied Biosystems, Carlsbad, Calif., USA) was performed. Taqman Gene Expression Assays were used for real-time PCR. The detailed inflammatory cytokines were as follows. […]

IL-6 = test: as above; assay type: in vivo, mouse; conditions: 5 mg/ml or 10 mg/ml in the eye twice a day for a week; three groups incl. PBS; FIG. 7c
Description: as §1, §2

[4] = tested on: ethanol induced corneal injury mouse model; test: Clinical index scoring of corneal epithelium damage recovery; assay type: in vivo
Description: as §1
8-oxo-dG was applied into the eye of the ethanol induced corneal injury mouse model for a week and then the recovery of the corneal epithelium damage was investigated. Particularly, the ethanol induced corneal injury mouse model examined in Experimental Example 1 was injected with Zoletil intramuscularly in order to anesthetize the mouse, followed by lysamine green staining on the cornea. Then, epithelial integrity and clarity of the corneal epithelium and corneal neovascularization were investigated and the results proceeded to clinical grading and scoring by items.
The corneal clarity was also evaluated and scored step by step. The indexes of the evaluation are as follows (Fantes et al, Arch Ophthalmol 1990).
In addition, in order to evaluate and score the degree of corneal neovascularization, the cornea was divided into quadrants as shown in FIG. 1. Based on the limbus between the cornea and the sclera, 0.5 points were assigned to each part of the newly formed vessels in the inside, followed by indexing and scoring (total 12 scores) (Li et al, Molecular Vision 2010).
During the application of 8-oxo-dG into the eye for a week, corneal staining was performed for a week to graphically identify the recovery of the corneal epithelial defects on daily basis.

Rac protein = conditions: exogenous 8-oxo-dG; previous experiments with animal models; cited from earlier work

In the case of Nc1nc2c([nH]c(=O)n2[C@H]2CC(O)[C@@H](CO)O2)c(=O)[nH]1 (some centres unmarked) [8-oxo-dG, 8-oxo-2′-deoxyguanosine], the “number of cells stained with anti-neutrophil elastase (neutrophils)” value ([1]; FIG. 6a) was “reduced significantly”, the “number of cells stained with anti F4/80 (macrophages)” value ([1]; FIG. 6b) was “reduced significantly” and the “number of cells stained with anti CD3 (T cells)” value ([1]; FIG. 6c) was “not much different”. The “corneal epithelium surface damage, lysamine green staining (after staining)” value [2] was “reduced significantly by the treatment of 8-oxo-dG dose-dependently”, the “corneal epithelium surface damage, naked eye (before staining)” value [2] was “reduced by the treatment of 8-oxo-dG dose-dependently” and the “expression of TNF-α mRNA” value (TNF-α) was “not significantly but slightly reduced”. The “corneal epithelium tissue condition/thickness (H&E)” value [3] was “restored to the normal level”, the “expression of IL-1β mRNA” value (IL-1β) was “significantly reduced” and the “expression of IL-6 mRNA” value (IL-6) was “not much different”. For the same compound, the neovascularization scoring index ([4]; 5 mg/ml or 10 mg/ml in the eye twice a day for a week, FIG. 4c) was “reduced in the group treated with 8-oxo-dG to some degree”, the “epithelial integrity index score (defect of the corneal epithelium surface)” value ([4]; 5 mg/ml or 10 mg/ml in the eye twice a day for a week, compared with PBS, FIG. 4a) was “reduced in the group treated with 8-oxo-dG dose-dependently” and the “corneal clarity scoring index” value ([4]; 5 mg/ml or 10 mg/ml in the eye twice a day for a week, lower index = improved clarity, FIG. 4b) was “reduced in the group treated with 8-oxo-dG dose-dependently”. For the same compound, the “daily recovery of corneal epithelial defects (corneal staining index score)” value ([4]; 5 mg/ml or 10 mg/ml in the eye, daily corneal staining for a week, FIG. 4d) was “significantly reduced in the group treated with 8-oxo-dG dose-dependently” and the “effect on Rac protein (GTPase)” value (Rac protein) was “inactivated Rac protein”.
